According to US20080182859A1 (Curis, Inc., priority 2006, published 2008):
pEC50: −log10 of the molar value. Counter-ions that a name gives are not always drawn.

Legend:
Format in all cases: cell-based
sonic hedgehog pathway [1] = assay: Hedgehog pathway Gli-luciferase reporter assay, TM3 cells; details: TM3 mouse Leydig cells
Text: (§1) Mouse (TM3: mouse Leydig cells; S12: mouse embryonic mesenchymal cells) and human (Daoy: human medulloblastoma cell; HepM: human embryonic palatal mesenchymal cell) cell lines are used to screen small molecules for their ability to modulate the activity of the sonic hedgehog pathway (Table 1, Table 2, and Table 3). Stable hedgehog pathway reporter cell lines are established by specific antibiotic selection following transfection of a reporter plasmid containing a luciferase gene located directly downstream from the gli promoter. Consequently, any observable changes in cellular luciferase activity may be attributed to changes in sonic hedgehog pathway activity in mouse and human cells, respectively, since gli is the major by-product of this pathway. To calculate activity, we generate an eleven point dose curve for each compound using 1:3 dilutions in 96 well assay plates. Each plate tested also contains low and high control to establish maximal pathway activation so to establish/compare a percentage activation of each tested compound (AMAX) on respective plates. Also we calculate EC50 values, or a concentration where the pathway will be exactly 50% activated, for each tested compound to determine potency. In these cell lines, compounds that register >20% AMAX values are considered active.
(§2) Stable hedgehog pathway reporter cell lines are established following specific antibiotic selection following transfection of a reporter plasmid In short, typically cells are plated in MicroTiter-plates at 10,000-20,000 cells per well, in growth media (containing 10%-20% FBS). After 48-72 hrs (HGL and DGL respectively) the media in the assay plates is switched to low-serum containing media (0.5% FBS). At that time compounds are added (at 1-5 μM) to the assay plates, in the presence or absence of hedgehog protein (octyl-modified version; 1-5 ng/ml). After another 24 hrs of incubation, the media from the assay plates is discarded and replaced with luciferase assay-mix. Subsequently, plates are incubated at RT for ˜15-30 mins and then read in a luminometer. [note: addition of the Hedgehog protein, although not critical, will sensitize the assay allowing the identification of weak actives].

sonic hedgehog pathway [2] = assay: Human hedgehog reporter assay HEPM-GliLuc (HGL); details: HepM human embryonic palatal mesenchymal cells, Gli-luciferase reporter
Text: as §1, §2

sonic hedgehog pathway [3] = assay: Human hedgehog reporter assay Daoy-GliLuc (DGL); details: Daoy human medulloblastoma cells, Gli-luciferase reporter; read-out: Daoy Avg. EC50
Text: as §1, §2

`CN[C@H]1CC[C@@H](N(Cc2cc(-c3ccnc(C)c3)ccc2OC)C(=O)c2sc3ccccc3c2Cl)CC1` [331 (R11)] was tested, and the pEC50 (sonic hedgehog pathway [1]) was > 7.30 and the pEC50 (sonic hedgehog pathway [2]) was > 7.30.

`CN[C@H]1CC[C@@H](N(Cc2cc(-c3ccncc3)ccc2OC)C(=O)c2sc3ccccc3c2Cl)CC1` [339 (R12)] was tested, and the pEC50 (sonic hedgehog pathway [1]) was > 7.30 and the pEC50 (sonic hedgehog pathway [2]) was > 7.30.

With `CN[C@H]1CC[C@@H](N(Cc2cc(-c3ccc(C)nc3)ccc2OC)C(=O)c2sc3ccccc3c2Cl)CC1` [Compound 320, 3-Chloro-benzo[b]thiophene-2-carboxylic acid [2-methoxy-5-(6-methyl-pyridin-3-yl)-benzyl]-(4-methylamino-cyclohexyl)-amide dihydrochloride] the pEC50 (sonic hedgehog pathway [1]) was > 7.30 and the pEC50 (sonic hedgehog pathway [2]) was > 7.30.

In the case of `CN[C@H]1CC[C@@H](N(Cc2cc(-c3cccc(C#N)c3)ccc2OC)C(=O)c2sc3c(F)ccc(F)c3c2Cl)CC1` [Compound 337, 3-Chloro-4,7-difluoro-benzo[b]thiophene-2-carboxylic acid (3′-cyano-4-methoxy-biphenyl-3-ylmethyl)-(4-methylamino-cyclohexyl)-amide hydrochloride], the pEC50 (sonic hedgehog pathway [1]) was > 7.30 and the pEC50 (sonic hedgehog pathway [2]) was > 7.30.

In the case of `CCOc1ccc(-c2ccc(C(=O)C(F)(F)F)cc2)cc1CN(C(=O)c1sc2c(F)ccc(F)c2c1Cl)[C@H]1CC[C@@H](NC)CC1` [Compound 341, 3-Chloro-4,7-difluoro-benzo[b]thiophene-2-carboxylic acid [4-ethoxy-4′-(2,2,2-trifluoro-acetyl)-biphenyl-3-ylmethyl]-(4-methylamino-cyclohexyl)-amide trifluoroacetate], the pEC50 (sonic hedgehog pathway [1]) was > 7.30 and the pEC50 (sonic hedgehog pathway [2]) was 6.60 to 7.30.

In the case of `CN[C@H]1CC[C@@H](N(Cc2cc(-c3ccc(C#N)cc3)ccc2OC)C(=O)c2sc3c(F)ccc(F)c3c2Cl)CC1` [Compound 351, 3-Chloro-4,7-difluoro-benzo[b]thiophene-2-carboxylic acid (4′-cyano-4-methoxy-biphenyl-3-ylmethyl)-(4-methylamino-cyclohexyl)-amide hydrochloride], the pEC50 (sonic hedgehog pathway [1]) was > 7.30 and the pEC50 (sonic hedgehog pathway [2]) was > 7.30.

With `CN[C@H]1CC[C@@H](N(Cc2cc(-c3cccc(C(C)=O)c3)ccc2OC)C(=O)c2sc3c(F)ccc(F)c3c2Cl)CC1` [Compound 364, 3-Chloro-4,7-difluoro-benzo[b]thiophene-2-carboxylic acid (3′-acetyl-4-methoxy-biphenyl-3-ylmethyl)-(4-methylamino-cyclohexyl)-amide hydrochloride] the pEC50 (sonic hedgehog pathway [1]) was > 7.30 and the pEC50 (sonic hedgehog pathway [2]) was > 7.30.

`CCOc1ccc(-c2ccc(N)nc2)cc1CN(C(=O)c1sc2ccccc2c1Cl)[C@H]1CC[C@H](NC)CC1` [Compound 396, 3-Chloro-benzo[b]thiophene-2-carboxylic acid [2-ethoxy-5-(6-amino-pyridin-3-yl)-benzyl]-(4-methylamino-cyclohexyl)-amide dihydrochloride] gave a pEC50 (sonic hedgehog pathway [1]) of 6.00 to 6.60 and a pEC50 (sonic hedgehog pathway [2]) of 6.60 to 7.30.

`CNc1ccc(-c2ccc(OC)c(CN(C(=O)c3sc4ccccc4c3Cl)[C@H]3CC[C@H](NC)CC3)c2)cn1` [Compound 397, 3-Chloro-benzo[b]thiophene-2-carboxylic acid [2-methoxy-5-(6-methylamino-pyridin-3-yl)-benzyl]-(4-methylamino-cyclohexyl)-amide dihydrochloride] gave a pEC50 (sonic hedgehog pathway [1]) of 6.00 to 6.60 and a pEC50 (sonic hedgehog pathway [2]) of 6.00 to 6.60.

`CCOc1ccc(-c2cc(C)nc(C)c2)cc1CN(C(=O)c1sc2ccccc2c1Cl)[C@H]1CC[C@H](NC)CC1` [Compound 400, 3-Chloro-benzo[b]thiophene-2-carboxylic acid [5-(2,6-dimethyl-pyridin-4-yl)-2-ethoxy-benzyl]-(4-methylamino-cyclohexyl)-amide dihydrochloride] gave a pEC50 (sonic hedgehog pathway [1]) of 6.00 to 6.60 and a pEC50 (sonic hedgehog pathway [2]) of 6.00 to 6.60.

For `CCOc1ccc(-c2ccc(N)nc2C)cc1CN(C(=O)c1sc2ccccc2c1Cl)[C@H]1CC[C@H](NC)CC1` [Compound 403, 3-Chloro-benzo[b]thiophene-2-carboxylic acid [5-(6-amino-2-methyl-pyridin-3-yl)-2-ethoxy-benzyl]-(4-methylamino-cyclohexyl)-amide dihydrochloride], the pEC50 (sonic hedgehog pathway [1]) was 5.60 to 6.00 and the pEC50 (sonic hedgehog pathway [2]) was 6.00 to 6.60.

With `CCOc1ccc(-c2ccc(N(C)C)nc2)cc1CN(C(=O)c1sc2ccccc2c1Cl)[C@H]1CC[C@H](NC)CC1` [Compound 404, 3-Chloro-benzo[b]thiophene-2-carboxylic acid [5-(6-dimethylamino-pyridin-3-yl)-2-ethoxy-benzyl]-(4-methylamino-cyclohexyl)-amide bis(trifluoroacetate)] the pEC50 (sonic hedgehog pathway [1]) was 5.60 to 6.00 and the pEC50 (sonic hedgehog pathway [2]) was 6.00 to 6.60.

Compound `CN[C@H]1CC[C@H](N(Cc2cc(-c3ccc(N(C)C)nc3)ccc2OC)C(=O)c2sc3ccccc3c2Cl)CC1` [Compound 405, 3-Chloro-benzo[b]thiophene-2-carboxylic acid [5-(6-dimethylamino-pyridin-3-yl)-2-methoxy-benzyl]-(4-methylamino-cyclohexyl)-amide bis(trifluoroacetate)] has a pEC50 (sonic hedgehog pathway [1]) of 5.60 to 6.00 and a pEC50 (sonic hedgehog pathway [2]) of 6.00 to 6.60.

For `CN[C@H]1CC[C@H](N(Cc2cc(-c3ccc(C)nc3)ccc2OC)C(=O)c2sc3cccc(F)c3c2Cl)CC1` [Compound 406, 3-Chloro-4-fluoro-benzo[b]thiophene-2-carboxylic acid [2-methoxy-5-(6-methyl-pyridin-3-yl)-benzyl]-(4-methylamino-cyclohexyl)-amide dihydrochloride], the pEC50 (sonic hedgehog pathway [1]) was > 7.30 and the pEC50 (sonic hedgehog pathway [2]) was 6.60 to 7.30.

Compound `CN[C@H]1CC[C@H](N(Cc2cc(-c3cccc(C#N)c3)ccc2F)C(=O)c2sc3ccccc3c2Cl)CC1` [Compound 420, 3-Chloro-benzo[b]thiophene-2-carboxylic acid (3′-cyano-4-fluoro-biphenyl-3-ylmethyl)-(4-methylamino-cyclohexyl)-amide trifluoroacetate] has a pEC50 (sonic hedgehog pathway [1]) of 6.60 to 7.30 and a pEC50 (sonic hedgehog pathway [3]) of 6.60 to 7.30.

Work on `CN[C@H]1CC[C@H](N(Cc2cc(-c3ccc(C#N)cc3)ccc2F)C(=O)c2sc3ccccc3c2Cl)CC1` [Compound 423, 3-Chloro-benzo[b]thiophene-2-carboxylic acid (4′-cyano-4-fluoro-biphenyl-3-ylmethyl)-(4-methylamino-cyclohexyl)-amide trifluoroacetate] yielded a pEC50 (sonic hedgehog pathway [1]) of 6.00 to 6.60 and a pEC50 (sonic hedgehog pathway [3]) of 6.00 to 6.60.

In the case of `CN[C@H]1CC[C@H](N(Cc2cc(-c3ccccc3)ccc2F)C(=O)c2sc3ccccc3c2Cl)CC1` [Compound 425, 3-Chloro-benzo[b]thiophene-2-carboxylic acid (4-fluoro-biphenyl-3-ylmethyl)-(4-methylamino-cyclohexyl)-amide trifluoroacetate], the pEC50 (sonic hedgehog pathway [1]) was > 7.30 and the pEC50 (sonic hedgehog pathway [3]) was > 7.30.

`CN[C@H]1CC[C@H](N(Cc2cc(-c3ccc(N(C)C=O)cc3)ccc2F)C(=O)c2sc3ccccc3c2Cl)CC1` [Compound 426, 3-Chloro-benzo[b]thiophene-2-carboxylic acid [4-fluoro-4′-(formyl-methyl-amino)-biphenyl-3-ylmethyl]-(4-methylamino-cyclohexyl)-amide trifluoroacetate] was tested, and the pEC50 (sonic hedgehog pathway [1]) was > 7.30 and the pEC50 (sonic hedgehog pathway [3]) was 6.60 to 7.30.

In the case of `CN[C@H]1CC[C@H](N(Cc2cc(-c3ccc(C(O)C(F)(F)F)cc3)ccc2F)C(=O)c2sc3ccccc3c2Cl)CC1` (stereo partly shown) [Compound 433, 3-Chloro-benzo[b]thiophene-2-carboxylic acid [4-fluoro-4′-(2,2,2-trifluoro-1-hydroxy-ethyl)-biphenyl-3-ylmethyl]-(4-methylamino-cyclohexyl)-amide hydrochloride], the pEC50 (sonic hedgehog pathway [1]) was > 7.30 and the pEC50 (sonic hedgehog pathway [3]) was > 7.30.

For `CN[C@H]1CC[C@H](N(Cc2cc(-c3ccc(C(=O)C(F)(F)F)cc3)ccc2F)C(=O)c2sc3c(F)ccc(F)c3c2Cl)CC1` [Compound 434, 3-Chloro-4,7-difluoro-benzo[b]thiophene-2-carboxylic acid [4-fluoro-4′-(2,2,2-trifluoro-acetyl)-biphenyl-3-ylmethyl]-(4-methylamino-cyclohexyl)-amide hydrochloride], the pEC50 (sonic hedgehog pathway [1]) was > 7.30 and the pEC50 (sonic hedgehog pathway [3]) was > 7.30.

In the case of `CN[C@H]1CC[C@@H](N(Cc2cc(-c3cc(C)nc(C)c3)ccc2OC)C(=O)c2sc3ccccc3c2Cl)CC1` [Compound R1, 3-Chloro-benzo[b]thiophene-2-carboxylic acid [5-(2,6-dimethyl-pyridin-4-yl)-2-methoxy-benzyl]-(4-methylamino-cyclohexyl)-amide dihydrochloride], the pEC50 (sonic hedgehog pathway [1]) was > 7.30 and the pEC50 (sonic hedgehog pathway [2]) was 6.60 to 7.30.

For `CCOc1ccc(-c2ccc(C#N)cc2)cc1CN(C(=O)c1sc2ccccc2c1Cl)[C@H]1CC[C@@H](NC)CC1` [Compound R2, 3-Chloro-benzo[b]thiophene-2-carboxylic acid (4′-cyano-4-ethoxy-biphenyl-3-ylmethyl)-(4-methylamino-cyclohexyl)-amide hydrochloride], the pEC50 (sonic hedgehog pathway [1]) was 6.60 to 7.30 and the pEC50 (sonic hedgehog pathway [2]) was 6.60 to 7.30.

Work on `CCOc1ccc(-c2ccc(C)nc2)cc1CN(C(=O)c1sc2ccccc2c1Cl)[C@H]1CC[C@@H](NC)CC1` [Compound R4, 3-Chloro-benzo[b]thiophene-2-carboxylic acid [2-ethoxy-5-(6-methyl-pyridin-3-yl)-benzyl]-(4-methylamino-cyclohexyl)-amide dihydrochloride] yielded a pEC50 (sonic hedgehog pathway [1]) of 6.60 to 7.30 and a pEC50 (sonic hedgehog pathway [2]) of 6.60 to 7.30.
